Assay results from US20050176829A1, “Methods for treating hypothyroidism” (priority 2003, published 2005).
Entries after “also recorded” stand apart in the source; their conditions may differ. Read-outs that look alike come from different tables or passages of the source. Marks after values point to notes of the source that are not given here.

Key:
[1] = cited from earlier work
[2] = Heart rate after daily bolus administration of T3 in rats; type: in vivo, rat; details: for T3max−Conmax: max HR T3 minus max HR saline control
[3] = tested on: alpha-myosin heavy chain (alpha-MHC)
Experimental: FIG. 3A-3B. […] A: Representative agarose gel showing alpha-MHC hnRNA PCR products stained with ethidium bromide and visualized with ultraviolet light. PCR fragment size is 335 basepairs (bp). B: Quantification of hnRNA alpha-MHC 335 bp fragment from left ventricular RNA shown as a percentage of euthyroid (normal) values for three rats.
FIG. 4. […] Three 200 gram rats per each group.
FIG. 6. […] Hearts were removed after 3-4 days (24 hours after the last injection), and RNA was extracted from the left ventricles. Transcription was measured by quantitation of α-MHC hnRNA. The content of α-MHC hnRNA measured in these hearts is expressed as the percent of euthyroid (100%).
Methods and Materials—Animal Studies. Studies were conducted using adult Sprague-Dawley rats weighing between 180 and 225 g. Thyroidectomies were performed by surgical removal of the thyroid gland. […] After animals were sacrificed, the left ventricle of the heart was immediately frozen in liquid nitrogen and then treated for RNA extraction as previously described (Balkman et al. Endocrinology 130: 1002-6, 1992). Reverse transcription polymerase chain reaction (RT-PCR) assay of total left ventricular RNA for alpha-myosin heavy chain (alpha-MHC) heteronuclear (hn) RNA was carried out as previously described (Danzi and Klein, Thyroid 12(6): 467-72, 2002; Danzi et al. Am J Physiol Heart Circ Physiol. 284(6) :H2255-62, 2003). Results are expressed as means ±SE.
Expression of the cardiac- specific gene alpha-myosin heavy chain (alpha-MHC) is a sensitive indicator of normal cardiac function (Ojamaa et al. CVR&R 23: 20-6, 2002; Danzi et al. Am J Physiol Heart Circ Physiol. 284(6) :H2255-62, 2003; Danzi and Klein, Thyroid 12(6): 467-72, 2002; Ojamma and Klein, Endocrinology 132: 1002-6, 1993).

[4] = rats (Goslings et al.); cited from earlier work
[5] = clinical; details: human, in vivo, metabolic clearance rate (MCR) of T3
[6] = Serum half-life of T3 after bolus injection in thyroidectomized rats; type: in vivo; details: Sprague-Dawley, rat, intravenous, 1 ug
[7] = Serum T3, free T3 and T4 levels in hypothyroid (thyroidectomized) rats after T3 infusion or bolus injection (radioimmunoassay); type: in vivo, rat
Text: FIG. 2. […] Three rats per each group.
Methods and Materials—Animal Studies. […] Results are expressed as means ±SE.

[8] = hypothyroid rats, T3 infusion 7.0 μg/d, 1 week; cited from earlier work
[9] = daily bolus T3 0.8 μg/200 gram rat, day 1
[10] = daily bolus T3 0.8 μg/200 gram rat, day 2
[11] = daily bolus T3 0.8 μg/200 gram rat, day 3
[12] = daily bolus T3 0.8 μg/200 gram rat, day 4
[13] = daily bolus T3 0.8 μg/200 gram rat, day 5
[14] = day 6, no dosing of T3 on this day
[15] = day 7, no dosing of T3 on this day

N[C@@H](Cc1cc(I)c(Oc2ccc(O)c(I)c2)c(I)c1)C(=O)O [T3, triiodothyronine]
metabolic clearance rate (MCR) of T3 ([1]; humans (Chopra and Sabatino)): 24 L/day/70 kg | metabolic clearance rate (MCR) of T3 ([1]; hypothyroid humans (Bianchi et al.)): 11.4 L/day/m^2 | Δ HR ([2]; AVG of days 1-7): 84 | min HR ([2]; AVG of days 1-7, P < 0.001 vs control): 307^+ | max HR ([2]; AVG of days 1-7, P < 0.002 vs control): 390^ | maximum heart rate versus normal ([2]; bolus daily injections of T3 at 0.8 μg): increasing maximum heart rate above normal | max HR [2, 9]: 345 | min HR [2, 9]: 270 | Δ HR [2, 9]: 75 | max HR [2, 10]: 370 | min HR [2, 10]: 315 | Δ HR [2, 10]: 55 | max HR [2, 11]: 385** | min HR [2, 11]: 320 | Δ HR [2, 11]: 65 | max HR [2, 12]: 410** | min HR [2, 12]: 320 | Δ HR [2, 12]: 90 | max HR [2, 13]: 415** | min HR [2, 13]: 300 | Δ HR [2, 13]: 115 | max HR [2, 14]: 425* | min HR [2, 14]: 300* | Δ HR [2, 14]: 125 | max HR [2, 15]: 380* | min HR [2, 15]: 325* | Δ HR [2, 15]: 65 | T3max−Conmax ([2]; AVG): 43 | T3max−Conmax ([2]; day 1): 0 | T3max−Conmax ([2]; day 2): 10 | T3max−Conmax ([2]; day 3): 45 | T3max−Conmax ([2]; day 4): 70 | T3max−Conmax ([2]; day 5): 65 | T3max−Conmax ([2]; day 6 (no T3 dosing)): 70 | T3max−Conmax ([2]; day 7 (no T3 dosing)): 40 | alpha-MHC expression versus normal ([3]; hypothyroid rats, T3 infusion 0.25 and 0.5 μg/day): normalization of alpha-MHC expression was observed | alpha-myosin HC expression versus normal ([3]; hypothyroid rats, bolus daily injections 0.25-0.8 μg T3/day): not by bolus daily injections | alpha-myosin HC expression versus normal ([3]; hypothyroid rats, constant infusion 0.25-0.8 μg T3/day, 3-4 days): restored to normal | alpha-MHC cardiac transcription ([3]; thyroidectomized rats, bolus injection 1 μg T3 each day for 2 days): 60 % of normal | alpha-MHC expression (hnRNA) ([3]; thyroidectomized rats, single bolus injection of 1 μg T3, time course): transient increase in alpha-MHC expression | metabolic clearance rate (MCR) of T3 [4]: 2.93 mL/min/kg | clearance [5]: ~0.217 mL/min/kg | half-life [6]: 7 h | concentration at 3 days ([7]; Sprague-Dawley, rat, serum, subcutaneous, 0.25 μg/d): 0.44 ± 0.03 ng/mL | concentration at 3 days ([7]; Sprague-Dawley, rat, serum, subcutaneous, 0.8 μg/d): 0.78 ± 0.06 ng/mL | concentration at 1 week ([7]; Sprague-Dawley, rat, serum, subcutaneous, 1 μg/d): 1.32 ± 0.14 ng/mL | serum T3 levels versus normal ([7]; hypothyroid rats, 0.8 μg daily bolus injection, 24 hours after last injection): not effective in restoring serum T3 levels to normal | serum T3 levels versus normal ([7]; hypothyroid rats, 0.8 μg/day by subcutaneous miniosmotic pump infusion, blood sampled at 72): restored to normal; also recorded: restores serum T3 levels to about normal | serum T3 levels versus normal ([7]; hypothyroid rats, T3 infusion 0.25 μg/day and 0.5 μg/day): elevates serum T3 above levels observed in thyroidectomized animals, but does not fully restore serum T3 levels to normal | serum T3 levels versus normal ([7]; hypothyroid rats, T3 infusion at doses above 0.8 μg/day): elevated serum T3 levels above normal | serum T3 levels versus normal ([7]; thyroidectomized rats, single bolus injection 1 μg T3/day for 7 days): failed to restore serum T3 levels to normal | Heart weight/Body weight [8]: 3.64 ± 0.07^a
